Experimental data reported in article PMC8634709, “Neuroprotective Potential of Tamarillo (Cyphomandra betacea) Epicarp Extracts Obtained by Sustainable Extraction Process” (Frontiers in Nutrition, 2021).
Marks after values point to notes of the source that are not given here.

Tests used:
Settings in all cases: mean ± SD (n = 3)
[1] = ABTS radical scavenging assay
Experimental: ABTS^·+ radical scavenging assay was performed according to Re et al. ([32]), with modifications. TE at six different concentrations of each sample [from 2.9 to 29 μg/ml EtOH/H2O (1:1, v/v)] was used, giving a linear response between 20 and 80% of the control absorbance. All the measurements were performed in triplicate. Equation (3) represents the percentage of ABTS^·+ inhibition due to TE extracts and Trolox compared with the ABTS control.
(3) %Inh=AABTS control−(Asample−Asample blank)/AABTS control x 100
where A ABTScontrol is absorbance of radical at t = 0 min; Asample, represents the mean of absorbance readings of TE samples, and ASampleblank is the absorbance of the sample without ABTS. The capacity of free radical scavenging was expressed by IC50 value, and the results represent the mean inhibitory concentration (in μg/ml) of TE against ABTS^·+ radical.

[2] = RNS scavenging capacity (NO radical scavenging, Griess reaction)
Experimental: Reactive nitrogen species scavenging capacity was measured following the NO^· radical scavenging assay according to Ho et al. ([34]) and based on the Griess reaction. […] Each measurement was carried out in triplicate, and ascorbic acid and rosemary extract were used as chemical and natural positive controls, respectively. The NO scavenging capacity of the extract was expressed through inhibition % calculated as described in Equation (3).

[3] = ROS scavenging capacity (ORAC method)
Experimental: In this case, a concentration range of extract from 0.62 to 6.2 μg/ml in EtOH/H2O (1:9, v/v) was measured. […] The measurements were carried out in triplicate.
(4) %Inh=AUCControl−AUCsample/AUCcontrol x 100
AUC was calculated by means of Equation (5).
where f0 and fi are fluorescence at t = 0 and every 5 min, respectively.

Row | SMILES | ABTS IC50 [1] | RNS IC50 [2] | ROS (ORAC) IC50 [3]
1 | O=C1O[C@H]([C@@H](O)CO)C(O)=C1O [Ascorbic acid] | 25.000 ± 0.30^f μg/mL extract | 1100.901 ± 3.96^c μg/ml | –
2 | Cc1c(C)c2c(c(C)c1O)CCC(C)(C(=O)O)O2 (racemic) [Trolox, (±)-6-hydroxy-2,5,7,8-tetramethylchromane-2-carboxylic acid] | 2.500 ± 0.02^a μg/mL extract | – | 1.290 ± 0.09^a μg/ml
